Assay results taken from patent US10975069B2, “Sigma-2 receptor ligand drug conjugates as antitumor compounds, methods of synthesis and uses thereof” (priority 2014, dated 2021).

Experiments:
[1] = tested on: PDAC patient-derived xenograft; test: PDAC patient-derived mouse xenograft model; assay type: in vivo; settings: daily i.p. 375 nmoles for 2 weeks
Method: SW V-49s was also tested on a PDAC patient-derived mouse xenograft model, which is more clinically relevant. Surgical PDAC specimens (2×2 mm pieces) were obtained and implanted subcutaneously into the flanks of anesthetized NOD SCID mice. Then, tumors were harvested and implanted in the right flank of Athymic female nude mice (6 weeks old. National Cancer Institute Laboratories). These mice were treated with daily i.p. injections of […] and vehicle for 14 days. Mice were randomized into 2 groups (n=15). Drug treatment was started when the mean tumors diameter was ^˜6 mm. Mice received daily intra peritoneal injections with 375 nmoles in 100 μL/mouse of SW V-49s and vehicle for 2 weeks. Tumors were measured every other day. Mice were euthanized when tumors reached a diameter of 2 cm or ulcerated.

[2] = tested on: AsPC-1 cells; test: CELLTITER-GLO viability after pre-treatment with NAC or ZVAD; assay type: cell-based; settings: Homo sapiens
Method: To assess the roles of these two mechanisms on the induction of cell death, the effects of pan-caspase inhibitor and antioxidant on the efficacy of SW V-49s were tested. In these experiments, AsPC-1 cells were pre-treated with 10 mM of the antioxidant N acetyl cysteine (NAC), 20 μM of pan-caspase inhibitor ZVAD, and DMSO as a control for 1 hour. Then, the 3 groups were treated with 10 μM of SW V-49s for 5 hours, after which a CELLTITER-GLO® viability assay was performed.

[3] = tested on: caspase 9; test: CASPASE-GLO caspase 9 assay in AsPC-1 cells; assay type: cell-based, human; settings: 4 μM, 24 hours, DMSO baseline, FIG. 12B
Method: In these experiments, caspase-3/7.8 and 9 activities were measured In AsPC-1 cells using the corresponding CASPASE-GLO® Assay according to the manufacturer's instructions (Promega, Madison. Wis.). This assay is based on a caspase-specific substrate, which is cleaved to release aminoluciferin, a substrate of luciferase that results in caspase-specific luminescence signals. Cells were seeded at a density of 2×10^4 in white 96-well, clear bottom plates for 24 hours before treatment with 4 μM of compounds. The contents were then mixed using a plate shaker for 30 seconds, thereafter incubated at room temperature for 90 minutes. Luminescence signal was measured using a multi-mode microplate reader (BioTek). Assay was performed in triplicates, and the caspase activity of DMSO was considered as a base line.
The present inventors have shown that SV119 induces caspase-3 dependent apoptosis (Kashiwagi, H., el al. Mol Cancer 2007; 6:48). In these experiments, AsPC-1 cells were treated with 4 μM of SW V-49s. SV119, Erastin, and equimolar mixture of SV119 and Erastin for 24 hours. Using CASPASE-GLO® Assays, Caspase-3 level was measured to assess the activity of SW 119 domain of the SW V-49s compound and Caspase-8 and 9 levels were measured to identify which apoptotic pathway was involved.

## CCOc1ccccc1-n1c(CN2CCN(C(=O)COc3ccc(CNCCCCCCN4C5CCCC4CC(OC(=O)Nc4cc(C)ccc4OC)C5)cc3)CC2)nc2ccccc2c1=O.O=C(O)C(=O)O (stereo not shown) [SW V-49s]
[1]
  tolerability: tolerated the treatment well without obvious off-target effects
[1]; FIG. 14C
  growth rate of established tumors: markedly slowed the growth rate of the established tumors
[1]; vehicle 33 days, FIG. 14D
  median survival: 58 days
[2]; ASPC1, 10 μM SW V-49s 5 hours after 1 hour pre-treatment with 20 μM ZVAD
  viability at 10 µM: 91%
[2]; ASPC1, 10 μM SW V-49s 5 hours after 1 hour pre-treatment with 10 mM NAC
  viability at 10 µM: 63%
[2]; ASPC1, 10 μM SW V-49s alone, 5 hours (DMSO pre-treatment)
  viability at 10 µM: 39%
[3]
  caspase-9 fold above baseline: 3.2 fold
